# Laboratory results: US20250064990A1, “METHODS OF SCREENING FOR VMAT2 INHIBITORS” (Neurocrine Biosciences, Inc., priority 2021, published 2025)
# Where two headings read alike, the source gives them in different places.
# Columns and labels:
# VMAT2 = VMAT2 (Macaca fascicularis, UniProt A0A2K5UVB8); test: VMAT2 occupancy in NHP brain after i.v. NBI-750142, [^18F]AV-133 PET; type: in vivo, cynomolgus monkeys (Macaca fascicularis); settings: for receptor occupancy at 0.084 mg/kg / receptor occupancy at 0.52 mg/kg / receptor occupancy at 0.026 mg/kg / receptor occupancy at 0.26 mg/kg / receptor occupancy at 0.78 mg/kg: cynomolgus monkey
# Chain of VMAT2 (A0A2K5UVB8 entry or part of it): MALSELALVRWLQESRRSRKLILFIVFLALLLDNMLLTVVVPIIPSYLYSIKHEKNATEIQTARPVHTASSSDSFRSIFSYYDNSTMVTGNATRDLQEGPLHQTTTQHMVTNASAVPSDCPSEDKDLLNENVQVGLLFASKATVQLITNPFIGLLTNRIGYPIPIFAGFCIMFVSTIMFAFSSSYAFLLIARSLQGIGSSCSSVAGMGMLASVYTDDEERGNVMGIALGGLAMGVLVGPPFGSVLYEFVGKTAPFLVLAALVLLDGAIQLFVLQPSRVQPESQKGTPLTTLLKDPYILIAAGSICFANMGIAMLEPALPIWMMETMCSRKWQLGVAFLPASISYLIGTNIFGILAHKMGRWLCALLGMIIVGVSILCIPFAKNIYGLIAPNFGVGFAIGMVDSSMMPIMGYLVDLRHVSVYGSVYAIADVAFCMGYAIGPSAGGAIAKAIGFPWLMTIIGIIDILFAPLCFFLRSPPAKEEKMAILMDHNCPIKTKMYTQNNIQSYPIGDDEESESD
# Source text: The aim of this study was to assess the relationship between NBI-750142 dose/plasma concentration and VMAT2 occupancy with [^18F]AV-133 using PET in non-human primate (NIP) brain. A radioligand, [^18F]AV-133, has been used to image and quantify brain VMAT2 in vivo.
# Three non-naïve cynomolgus monkeys (Macaca fascicularis) were used in this study. The animals were judged to be in good health before the start of the study. At study origination the animals were 7 (female, EC865), 8 (male, GC786) and 9 (female, LC206) years old and weighed 4.2, 7.0, and 5.4 kg, respectively.
# The animals were imaged with [^18F]AV-133 at baseline with vehicle (0.9% saline) and post NBI-750142 blockade on separate days. Vehicle and NBI-750142 were administered as an intravenous (i.v.) bolus followed by a constant infusion over 3 hours. [^18F]AV-133 was injected as an i.v. bolus, 1 h after administration of vehicle/NBI-750142. The design study is summarized below Table 2-1.
# Dynamic data were acquired in the MicroPET Focus-220 camera (Siemens Microsystems, Knoxville, TN). Emission data were collected for 120 min post-injection and reconstructed into a series of 33 frames and all standard corrections were applied: normalization, random, scatter and attenuation. Dynamic brain PET images were transferred and analyzed using the image processing PMOD software package v3.802 (PMOD Technologies, Zurich, Switzerland). The PET images were rigidly aligned to a previously acquired animal's brain T1 MRI and then spatially normalized to a common cynomolgus MRI template for anatomical brain region definition.
# Volumes of interest (VOIs) defined in the cynomolgus template space (see e.g., Ballanger et al. Neuroimage, 2013, 7:26-43) were applied to the spatially normalized PET images to compute time-activity curves (TACs, kBq/cm^3) for caudate (0.96 cm^3), putamen (1.34 cm^3) and cerebellum (3.81 cm^3). TACs and images (averaged between 60-120 min) were presented in Standard Uptake Value (SUV) units (g/mL) normalized by the weight of the animal and the injected dose.
# Non-invasive Logan graphical analysis (start time of fit, t*=35 min) was used to estimate regional non-displaceable binding potential (BPND) using the TACs in the caudate and putamen, with the cerebellar cortex as the reference TAC. BPND was calculated in the in the caudate and putamen across baseline and NBI-750142 scans. Target occupancy was calculated according to Equation 1-1.
# where h is the Hill slope (h=1.0) and C is the mean of observed plasma concentrations during the scanning interval (60 to 180 minutes post-dose).
# [1] = NBI-750142 plasma concentration in healthy subjects; type: in vivo; settings: human, 18 h post single oral dose, across cohorts, approximately, read-out: NBI-750142 plasma concentrations at T2
structure (smiles),measurement,setting,value
COc1cc2c(cc1OC)[C@H]1CN(C)[C@H](CC(C)(C)C)CN1CC2 [NBI-750142],[^18F]AV-133 BPND,"VMAT2; animal EC865, Caudate, NBI-750142 0.084 mg/kg",2.39
same,[^18F]AV-133 BPND,"VMAT2; animal EC865, Caudate, NBI-750142 0.52 mg/kg",1.01
same,[^18F]AV-133 BPND,"VMAT2; animal EC865, Putamen, NBI-750142 0.084 mg/kg",3.10
same,[^18F]AV-133 BPND,"VMAT2; animal EC865, Putamen, NBI-750142 0.52 mg/kg",1.18
same,[^18F]AV-133 BPND,"VMAT2; animal GC786, Caudate, NBI-750142 0.026 mg/kg",3.10
same,[^18F]AV-133 BPND,"VMAT2; animal GC786, Caudate, NBI-750142 0.26 mg/kg",2.22
same,[^18F]AV-133 BPND,"VMAT2; animal GC786, Caudate, NBI-750142 0.78 mg/kg",0.33
same,[^18F]AV-133 BPND,"VMAT2; animal GC786, Putamen, NBI-750142 0.026 mg/kg",3.53
same,[^18F]AV-133 BPND,"VMAT2; animal GC786, Putamen, NBI-750142 0.26 mg/kg",2.39
same,[^18F]AV-133 BPND,"VMAT2; animal GC786, Putamen, NBI-750142 0.78 mg/kg",0.43
same,[^18F]AV-133 BPND,"VMAT2; animal LC206, Caudate, NBI-750142 0.26 mg/kg",1.42
same,[^18F]AV-133 BPND,"VMAT2; animal LC206, Putamen, NBI-750142 0.26 mg/kg",1.61
same,[^18F]AV-133 binding post administration of NBI-750142,VMAT2; caudate and putamen vs baseline,dose-dependent decrease
same,receptor occupancy at 0.084 mg/kg,"VMAT2; iv, read-out: % Occ, animal EC865, Caudate, 0.084 mg/kg",38.7%
same,receptor occupancy at 0.52 mg/kg,"VMAT2; iv, read-out: % Occ, animal EC865, Caudate, 0.52 mg/kg",74.2%
same,receptor occupancy at 0.084 mg/kg,"VMAT2; iv, read-out: % Occ, animal EC865, Putamen, 0.084 mg/kg",40.9%
same,receptor occupancy at 0.52 mg/kg,"VMAT2; iv, read-out: % Occ, animal EC865, Putamen, 0.52 mg/kg",77.5%
same,receptor occupancy at 0.026 mg/kg,"VMAT2; iv, read-out: % Occ, animal GC786, Caudate, 0.026 mg/kg",31.1%
same,receptor occupancy at 0.26 mg/kg,"VMAT2; iv, read-out: % Occ, animal GC786, Caudate, 0.26 mg/kg",50.8%
same,receptor occupancy at 0.78 mg/kg,"VMAT2; iv, read-out: % Occ, animal GC786, Caudate, 0.78 mg/kg",92.7%
same,receptor occupancy at 0.026 mg/kg,"VMAT2; iv, read-out: % Occ, animal GC786, Putamen, 0.026 mg/kg",25.8%
same,receptor occupancy at 0.26 mg/kg,"VMAT2; iv, read-out: % Occ, animal GC786, Putamen, 0.26 mg/kg",49.7%
same,receptor occupancy at 0.78 mg/kg,"VMAT2; iv, read-out: % Occ, animal GC786, Putamen, 0.78 mg/kg",90.9%
same,receptor occupancy at 0.26 mg/kg,"VMAT2; iv, read-out: % Occ, animal LC206, Caudate, 0.26 mg/kg",64.5%
same,receptor occupancy at 0.26 mg/kg,"VMAT2; iv, read-out: % Occ, animal LC206, Putamen, 0.26 mg/kg",63.7%
same,receptor occupancy at 0.084 mg/kg,"VMAT2; read-out: Target Occupancy, Mean of Putamen and Caudate, EC865, 0.084 mg/kg",40%
same,receptor occupancy at 0.52 mg/kg,"VMAT2; read-out: Target Occupancy, Mean of Putamen and Caudate, EC865, 0.52 mg/kg",76%
same,receptor occupancy at 0.026 mg/kg,"VMAT2; read-out: Target Occupancy, Mean of Putamen and Caudate, GC786, 0.026 mg/kg",28%
same,receptor occupancy at 0.26 mg/kg,"VMAT2; read-out: Target Occupancy, Mean of Putamen and Caudate, GC786, 0.26 mg/kg",50%
same,receptor occupancy at 0.78 mg/kg,"VMAT2; read-out: Target Occupancy, Mean of Putamen and Caudate, GC786, 0.78 mg/kg",92%
same,receptor occupancy at 0.26 mg/kg,"VMAT2; read-out: Target Occupancy, Mean of Putamen and Caudate, LC206, 0.26 mg/kg",64%
same,50% effective total concentration (EC50) of plasma NBI-750142 for VMAT2 occupancy,"VMAT2; striatum, Emax model, Hill slope 1, cynomolgus monkey PET",0.011 µg/mL
same,concentration at 18 h,[1],0.3 to 10 ng/mL
